# Test results reported in the NIST ThermoML archive (doi:10.1021/acs.jced.8b00635).
# ± gives the expanded uncertainty stated by the source.
# Assay: activity coefficient (dimensionless); of the first substance listed, at infinite dilution; xn = mol fraction of the nth substance listed
# Conditions: 101.33 kPa, Liquid, Chromatography, x1 = 0
activity coefficient (323.15 K),activity coefficient (333.15 K),activity coefficient (343.15 K),activity coefficient (353.15 K),activity coefficient (363.15 K),activity coefficient (373.15 K),SMILES
1.43 ± 0.15,1.22 ± 0.12,0.985 ± 0.1,0.87 ± 0.089,0.7 ± 0.073,0.566 ± 0.061,CCOC(C)=O [ethyl acetate] + CCCCC(CC)CN(CC(CC)CCCC)C(=O)C(C)C
8.64 ± 0.91,6.42 ± 0.68,4.88 ± 0.51,3.74 ± 0.39,2.86 ± 0.3,2.15 ± 0.23,CCCC(=O)CC [3-hexanone] + CCCCC(CC)CN(CC(CC)CCCC)C(=O)C(C)C
4.26 ± 0.45,3.33 ± 0.35,2.6 ± 0.27,2.09 ± 0.22,1.74 ± 0.18,1.29 ± 0.13,"CC(C)CC(C)(C)C [2,2,4-trimethylpentane] + CCCCC(CC)CN(CC(CC)CCCC)C(=O)C(C)C"
1.11 ± 0.11,0.938 ± 0.096,0.768 ± 0.079,0.639 ± 0.067,0.525 ± 0.057,0.428 ± 0.049,CCCC(C)C [2-methylpentane] + CCCCC(CC)CN(CC(CC)CCCC)C(=O)C(C)C
1.77 ± 0.18,1.37 ± 0.14,1.17 ± 0.12,0.957 ± 0.097,0.789 ± 0.081,0.678 ± 0.071,C=CCCCC [hex-1-ene] + CCCCC(CC)CN(CC(CC)CCCC)C(=O)C(C)C
4.37 ± 0.46,3.49 ± 0.37,2.78 ± 0.29,2.32 ± 0.24,2.02 ± 0.21,1.71 ± 0.18,CCCCCCC [heptane] + CCCCC(CC)CN(CC(CC)CCCC)C(=O)C(C)C
0.795 ± 0.082,0.676 ± 0.071,0.544 ± 0.059,0.457 ± 0.051,0.382 ± 0.045,0.324 ± 0.041,CCCCC [pentane] + CCCCC(CC)CN(CC(CC)CCCC)C(=O)C(C)C
13.8 ± 1.4,10.6 ± 1.1,8.16 ± 0.86,6.2 ± 0.65,5 ± 0.53,4.04 ± 0.42,CCCCCC(C)=O [2-heptanone] + CCCCC(CC)CN(CC(CC)CCCC)C(=O)C(C)C
2.56 ± 0.27,2 ± 0.21,1.65 ± 0.17,1.37 ± 0.14,1.15 ± 0.12,0.954 ± 0.097,c1ccccc1 [benzene] + CCCCC(CC)CN(CC(CC)CCCC)C(=O)C(C)C
0.608 ± 0.065,0.506 ± 0.056,0.41 ± 0.048,0.339 ± 0.042,0.273 ± 0.037,0.225 ± 0.034,ClCCl [dichloromethane] + CCCCC(CC)CN(CC(CC)CCCC)C(=O)C(C)C
24.3 ± 2.6,19.4 ± 2,16.8 ± 1.8,14 ± 1.5,11.1 ± 1.2,9.87 ± 1,C=CCCCCCCCC [1-decene] + CCCCC(CC)CN(CC(CC)CCCC)C(=O)C(C)C
2.77 ± 0.29,2.15 ± 0.23,1.74 ± 0.18,1.41 ± 0.15,1.18 ± 0.12,0.966 ± 0.098,C1CCCCC1 [cyclohexane] + CCCCC(CC)CN(CC(CC)CCCC)C(=O)C(C)C
17.8 ± 1.9,14.7 ± 1.6,11.5 ± 1.2,9.18 ± 0.97,7.33 ± 0.77,5.72 ± 0.6,CCCc1ccccc1 [propylbenzene] + CCCCC(CC)CN(CC(CC)CCCC)C(=O)C(C)C
0.056,0.052,0.048,0.044,0.041,0.037,C=O [methanal] + CCCCC(CC)CN(CC(CC)CCCC)C(=O)C(C)C
4.02 ± 0.42,2.89 ± 0.3,2.31 ± 0.24,1.8 ± 0.19,1.25 ± 0.13,0.974 ± 0.099,C=CCCCCC [1-heptene] + CCCCC(CC)CN(CC(CC)CCCC)C(=O)C(C)C
1.91 ± 0.2,1.53 ± 0.16,1.26 ± 0.13,1.02 ± 0.1,0.845 ± 0.087,0.717 ± 0.075,CCCCCC [hexane] + CCCCC(CC)CN(CC(CC)CCCC)C(=O)C(C)C
26.4 ± 2.8,22.7 ± 2.4,18.3 ± 1.9,15.2 ± 1.6,12.2 ± 1.3,9.89 ± 1,CCCCCCCCCC [decane] + CCCCC(CC)CN(CC(CC)CCCC)C(=O)C(C)C
39.2 ± 4.1,35.9 ± 3.8,31.5 ± 3.3,27.5 ± 2.9,25.5 ± 2.7,22.7 ± 2.4,CCCCCCCCCCC [undecane] + CCCCC(CC)CN(CC(CC)CCCC)C(=O)C(C)C
11.3 ± 1.2,8.75 ± 0.92,6.78 ± 0.71,4.96 ± 0.52,3.9 ± 0.41,2.88 ± 0.3,CCc1ccccc1 [ethylbenzene] + CCCCC(CC)CN(CC(CC)CCCC)C(=O)C(C)C
7.52 ± 0.79,6.09 ± 0.64,4.86 ± 0.51,3.76 ± 0.4,2.94 ± 0.31,2.21 ± 0.23,C=CCCCCCC [oct-1-ene] + CCCCC(CC)CN(CC(CC)CCCC)C(=O)C(C)C
18.5 ± 1.9,16 ± 1.7,13.7 ± 1.4,11.8 ± 1.2,9.8 ± 1,8.67 ± 0.91,CCCCCCCCC [nonane] + CCCCC(CC)CN(CC(CC)CCCC)C(=O)C(C)C
1.47 ± 0.15,1.21 ± 0.12,1.03 ± 0.1,0.861 ± 0.088,0.718 ± 0.075,0.568 ± 0.061,CC#N [acetonitrile] + CCCCC(CC)CN(CC(CC)CCCC)C(=O)C(C)C
1.15 ± 0.12,0.966 ± 0.098,0.746 ± 0.077,0.586 ± 0.063,0.463 ± 0.052,0.372 ± 0.044,ClC(Cl)Cl [trichloromethane] + CCCCC(CC)CN(CC(CC)CCCC)C(=O)C(C)C
11.9 ± 1.3,8.35 ± 0.88,6.04 ± 0.64,4.54 ± 0.48,3.36 ± 0.35,2.63 ± 0.28,CCCCCCCC [octane] + CCCCC(CC)CN(CC(CC)CCCC)C(=O)C(C)C

SMILES,activity coefficient (323.15 K),activity coefficient (333.15 K),activity coefficient (343.15 K),activity coefficient (353.15 K),activity coefficient (363.15 K),activity coefficient (373.15 K)
Cc1ccccc1 [toluene] + CCCCC(CC)CN(CC(CC)CCCC)C(=O)C(C)C,5.11 ± 0.54,4.25 ± 0.45,3.25 ± 0.34,2.5 ± 0.26,1.88 ± 0.2,1.46 ± 0.15
CC(C)=O [acetone] + CCCCC(CC)CN(CC(CC)CCCC)C(=O)C(C)C,0.901 ± 0.092,0.745 ± 0.077,0.596 ± 0.064,0.465 ± 0.052,0.375 ± 0.045,0.294 ± 0.039
"Cc1cccc(C)c1 [1,3-dimethylbenzene] + CCCCC(CC)CN(CC(CC)CCCC)C(=O)C(C)C",11.8 ± 1.2,9.28 ± 0.98,7.2 ± 0.76,5.33 ± 0.56,4.13 ± 0.43,3.14 ± 0.33
CCCCc1ccccc1 [butylbenzene] + CCCCC(CC)CN(CC(CC)CCCC)C(=O)C(C)C,24.4 ± 2.6,20.7 ± 2.2,17.5 ± 1.8,15 ± 1.6,12.5 ± 1.3,10.6 ± 1.1
ClC(Cl)(Cl)Cl [tetrachloromethane] + CCCCC(CC)CN(CC(CC)CCCC)C(=O)C(C)C,1.94 ± 0.2,1.6 ± 0.17,1.22 ± 0.13,0.935 ± 0.095,0.727 ± 0.076,0.581 ± 0.062
"Cc1ccc(C)cc1 [1,4-dimethylbenzene] + CCCCC(CC)CN(CC(CC)CCCC)C(=O)C(C)C",11.6 ± 1.2,9.01 ± 0.95,6.9 ± 0.73,5.2 ± 0.55,3.75 ± 0.4,2.89 ± 0.3
